Assay [1] has as its system AMPK complexes containing β1 S108A mutation at the ADaM site. Kind of assay: pACC HTRF assay in AMPKβ1/β2 double knockout U-2 OS cells stably expressing β1 S108A mutant. The class given is cell-based, human. The settings on record: AMPKβ1β2 double knockout cells stably expressing β1 S108A mutant, varying concentrations, 30 mins at 37 C; FIG. 3. As to the method:
(§1) The β1 WT or β1 S108A mutant were stably expressed in AMPKβ1β2 double knockout cells and treated with varying concentrations of compound 1 or compound 2 for 30 mins at 37 C. Phosphorylation of ACC was assessed using the HTRF Cisbio (pACC kit).
(§2) AMPKβ1/β2 double knockout U-2 OS Flp-In™ T-Rex™ cell lines were generated and cells were genotyped and analysed by Western blotting to confirm that there was a complete knockout of AMPKβ1/β2. We took these AMPKβ1/β2 double knockout cells, and re-introduced the expression of human β1 wild-type (WT) or a β1 Serine 108 to alanine mutation (S108A). This was achieved using the Flp-In™ system (Invitrogen) present in this cell line and stable cells expressing β1 WT or a β1 S108A mutant were generated according to the manufacturers' protocols.
(§3) Cells stably expressing β1 WT or a β1 S108A mutant were treated with varying concentrations of compound 1 and compound 2 and subjected to the pACC HTRF (Cisbio) assay to determine the level of phosphorylation of the AMPK substrate, ACC, in cell lysates, as in Example 2.

In assay [2] the test system is AMPK complexes containing β1 WT subunit. Kind of assay: pACC HTRF assay in AMPKβ1/β2 double knockout U-2 OS cells stably expressing β1 WT. The class given is cell-based, human. The settings on record: AMPKβ1β2 double knockout cells stably expressing β1 WT, varying concentrations, 30 mins at 37 C; FIG. 3 and FIG. 4. As to the method: as §1
(§4) U-2 OS cells AMPKβ1β2 double knockout cells stably expressing AMPK β1 or β2 were treated with varying concentrations of Compound 1 or compound 2 for 30 mins at 37 C.
(§5) Phosphorylation of ACC was assessed using the HTRF Cisbio (pACC kit).
as §2, §3
We took AMPKβ1/β2 double knockout cells, and re-introduced the expression of human β1 WT or β2 WT isoforms. […]
Background: In TR-FRET formats the signal depends on donor and acceptor labels being close together.

The subject of assay [3] is AMPK complexes containing the β2 isoform subunit. Kind of assay: pACC HTRF assay in AMPKβ1/β2 double knockout U-2 OS cells stably expressing β2 WT. The class given is cell-based, human. Particulars: AMPKβ1β2 double knockout cells stably expressing β2 WT isoform, varying concentrations, 30 mins at 37 C; FIG. 4. As to the method: as §4, §5
We took AMPKβ1/β2 double knockout cells, and re-introduced the expression of human β1 WT or β2 WT isoforms. […] Cells stably expressing β1 WT or β2 WT were treated with varying concentrations of compound 1 and compound 2, and subjected to the pACC HTRF (Cisbio) assay to determine the level of phosphorylation of the AMPK substrate, ACC, in cell lysates, as in example 2. […] This activation profile is characteristic of activators that bind to the ADaM site and consistent with previous studies showing that ADaM-site activators have poorer activation of β2-containing complexes in vitro and in cells.

A further assay has as its target T1, AMPKα2β1γ1 complex (Homo sapiens, UniProt P54646+Q9Y478).
T1 construct: His; made in house
Kind of assay: HTRF KinEASE activity assay with bacterially-expressed, phosphorylated purified AMPKα2β1γ1. The format is biochemical. The settings on record: varying concentrations, 30 mins incubation, cell free; FIG. 1. As to the method: Varying concentrations of compound 1 and compound 2 were incubated with phosphorylated purified AMPK α2β1γ1 for 30 mins. AMPK activity was determined using the HTRF KinEASE assay kit and results are presented as the ratio of 665/620 nm (STK1 phosphorylation).
The AMPKα2β1γ1 complex was expressed in bacteria and purified through the His-α subunit by nickel purification, purified through gel filtration and phosphorylated by incubation with CaMKKβ, and then further purified through a final gel filtration purification step. Phosphorylated purified AMPK was incubated with varying concentrations of ligand for 30 mins along with substrate and reagents from the HTRF-KinEASE Cisbio assay kit (STK S1 Kit). Phosphorylation of the substrate was measured by incubating with donor and acceptor antibodies for 2 h at room temperature as per the manufacturer's protocol (Coulerie et al., (2016), J Nat Prod. 2016 Nov. 23; 79(11):2856-2864. Epub 2016 Oct. 28.) and phosphorylated peptide detected by performing HTRF. […] Compound 1 is 3-methoxy-6H-benzo[c]chromene-1,8-diol and Compound 2 is 8-methoxy-6H-benzo[c]chromene-3,10-diol.

The subject of assay [4] is AMPK (phosphorylation of ACC) in U-2 OS Flp-In T-REx mammalian cells. Kind of assay: pACC HTRF (Cisbio) assay in U-2 OS Flp-In T-REx cells. The format is cell-based. The settings on record: varying concentrations, 30 mins at 37 C, FIG. 2. As to the method:
U-2 OS cells were treated with varying concentrations of compound 1 or compound 2 for 30 mins at 37 C. Phosphorylation of ACC was assessed using the HTRF Cisbio (pACC kit).
U-2 OS Flp-In T-REx cells were seeded at 50 K in a 96-well plate and left overnight at 37 C in DMEM GlutaMAX (Thermo Fisher Scientific) supplemented with 10% (vol/vol) FBS and 100 U/ml penicillin G, and 100 μg/ml streptomycin. Cells were treated for 30 mins with varying concentrations of Compound 1 in media lacking FBS and then cells were lysed in 50 μl of Cisbio lysis buffer #1 supplemented with blocking solution as per the manufacturer's protocol (Cisbio). Cells were lysed for 30 mins at room temperature before 16 μl of lysate was incubated with 4 μl of the HTRF antibodies (1:40 dilution of the acceptor and donor (p) ACC antibodies, as per the manufacturers protocol). Lysates were incubated overnight with the antibodies before 665 nm/620 nm ratio was determined using a MolecularDevices i3 plate reader (with a HTRF cartridge add-on). The results are plotted as fold activation compared to the respective AMPK complex without any compound.

We go through two compounds from patent US20230026772A1, “DIBENZOPYRAN AMPK ACTIVATOR COMPOUNDS, COMPOSITIONS, METHODS AND USES THEREOF” (SOCIETE DES PRODUITS NESTLE S.A., priority 2019, published 2023).

T1 sequence (P54646 whole entry): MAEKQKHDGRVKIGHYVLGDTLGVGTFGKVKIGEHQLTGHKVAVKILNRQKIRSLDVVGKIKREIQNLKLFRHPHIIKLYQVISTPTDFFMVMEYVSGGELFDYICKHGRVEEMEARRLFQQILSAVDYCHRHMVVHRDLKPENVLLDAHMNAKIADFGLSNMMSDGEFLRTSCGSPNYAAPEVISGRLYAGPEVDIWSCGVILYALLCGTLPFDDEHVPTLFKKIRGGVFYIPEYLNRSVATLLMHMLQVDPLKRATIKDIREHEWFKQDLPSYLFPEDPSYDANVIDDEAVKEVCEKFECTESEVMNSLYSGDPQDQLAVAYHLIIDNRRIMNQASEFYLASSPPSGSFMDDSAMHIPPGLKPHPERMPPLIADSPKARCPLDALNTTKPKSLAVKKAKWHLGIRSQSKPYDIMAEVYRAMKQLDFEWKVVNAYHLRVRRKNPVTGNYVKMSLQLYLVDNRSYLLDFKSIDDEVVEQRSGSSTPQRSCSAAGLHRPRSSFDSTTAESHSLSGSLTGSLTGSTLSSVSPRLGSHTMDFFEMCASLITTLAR
T1 sequence (Q9Y478 whole entry): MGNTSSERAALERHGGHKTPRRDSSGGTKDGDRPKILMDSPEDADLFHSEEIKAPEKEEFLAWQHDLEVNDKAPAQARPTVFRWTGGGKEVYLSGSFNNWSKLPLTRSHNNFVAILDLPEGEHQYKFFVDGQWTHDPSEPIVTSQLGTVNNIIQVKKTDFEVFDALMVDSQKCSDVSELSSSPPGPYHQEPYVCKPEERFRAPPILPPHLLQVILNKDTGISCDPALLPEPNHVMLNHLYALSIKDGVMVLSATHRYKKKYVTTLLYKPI
T1 sequence (P54619 whole entry partner): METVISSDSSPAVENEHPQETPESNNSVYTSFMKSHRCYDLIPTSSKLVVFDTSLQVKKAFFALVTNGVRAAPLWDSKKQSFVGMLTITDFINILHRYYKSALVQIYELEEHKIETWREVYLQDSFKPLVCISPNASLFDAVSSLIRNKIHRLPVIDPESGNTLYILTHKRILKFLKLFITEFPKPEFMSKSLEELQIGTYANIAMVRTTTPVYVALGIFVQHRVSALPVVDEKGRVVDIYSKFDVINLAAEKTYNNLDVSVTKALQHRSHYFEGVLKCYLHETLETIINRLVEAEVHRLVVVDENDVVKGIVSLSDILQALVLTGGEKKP

For the compound `COc1cc(O)c2c(c1)OCc1cc(O)ccc1-2` [Compound 1, 3-methoxy-6H-benzo[c]chromene-1,8-diol], the figures for the “Phosphorylation of ACC (pACC, fold increase relative to untreated cells)” value in assay [1], in assay [2] and in assay [3] were “not able to increase pACC”, “able to dose-dependently increase pACC” and “not able to increase pACC”, respectively. Also, on AMPKα2β1γ1 complex, the “AMPK activity (665 nm/620 nm ratio, STK1 substrate phosphorylation)” value is “allosterically activate AMPKα2β1γ1 in a dose-dependent manner”. The “Phosphorylation of ACC (fold activation relative to untreated cells)” value in assay [4] is listed as “increase the phosphorylation of the AMPK substrate, ACC, in a dose-dependent manner”.

For the compound `COc1cc(O)c2c(c1)COc1cc(O)ccc1-2` [Compound 2, 8-methoxy-6H-benzo[c]chromene-3,10-diol], the results for the “Phosphorylation of ACC (pACC, fold increase relative to untreated cells)” value in assay [1], in assay [2] and in assay [3] were “not able to increase pACC”, “able to dose-dependently increase pACC” and “not able to increase pACC”, respectively. Besides, on AMPKα2β1γ1 complex, the “AMPK activity (665 nm/620 nm ratio, STK1 substrate phosphorylation)” value is listed as “allosterically activate AMPKα2β1γ1 in a dose-dependent manner”. In addition, in assay [4], the “Phosphorylation of ACC (fold activation relative to untreated cells)” value is “increase the phosphorylation of the AMPK substrate, ACC, in a dose-dependent manner”.
